Measured values reported in patent US20240180886A1, “INHIBITORS OF PROTEIN TYROSINE PHOSPHATASE, COMPOSITIONS, AND METHODS OF USE” (BRISTOL-MYERS SQUIBB COMPANY, priority 2022, published 2024).

Experiments:
[1] = target: T1, PTPN2 (Homo sapiens (Human), UniProt P17706); experiment: PhosphoSens assay (PTPN2 BCHEM); format: biochemical; conditions: substrate AQT0264 20 μM, PTPN2 150 pM
Protocol: A PhosphoSens® kinase assay was performed as described by the vendor (AssayQuant Technologies, Marlborough, MA). Briefly, 1000× solutions of compounds were prepared in DMSO via serial dilution of the 10 mM DMSO stocks using 3-fold intervals in a 384-well reagent plate. 50 nL of the compound dilution series was then added to the corresponding wells of a 384-well assay plate. […] Finally, […] of 5× PTPN2 enzyme stock was added to each well of the assay plate for a final enzyme concentration of 150 pM. Reaction progress curves were collected by sampling fluorescence intensity at the excitation wavelength 360 nm (λex360) and emission wavelength 480 nm (λem480) every 71 seconds for one hour using a Synergy H4 plate reader (BioTek Instruments/Agilent Technologies, Winooski, VT) at room temperature.
Target sequence in this assay (P17706 whole entry): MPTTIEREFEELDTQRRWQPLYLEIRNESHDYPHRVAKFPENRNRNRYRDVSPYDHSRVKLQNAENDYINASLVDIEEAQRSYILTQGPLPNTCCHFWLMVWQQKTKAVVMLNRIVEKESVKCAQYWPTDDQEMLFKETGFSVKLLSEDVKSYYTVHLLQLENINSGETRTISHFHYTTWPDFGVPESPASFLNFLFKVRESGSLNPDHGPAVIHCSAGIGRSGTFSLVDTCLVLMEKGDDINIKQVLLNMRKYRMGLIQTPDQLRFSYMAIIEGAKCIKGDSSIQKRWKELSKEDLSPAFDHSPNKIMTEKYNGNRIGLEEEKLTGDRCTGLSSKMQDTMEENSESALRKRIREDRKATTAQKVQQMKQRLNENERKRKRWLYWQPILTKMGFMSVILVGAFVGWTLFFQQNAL

[2] = target: T1, PTPN2; experiment: Phosphatase activity assay using DiFMUP as substrate; format: biochemical; conditions: PTPN2 0.15 nM, 10 mM DTT
Protocol: The PTPN2 biochemical assay was performed as follows, a 5× stock solution of human PTPN2 (SRP5075, MilliporeSigma, Burlington, MA) and a 1.25× stock solution of DiFMUP (D6567, ThermoFisher Scientific, Waltham, MA), were prepared in 1× reaction buffer consisting of 50 mM HEPES, pH 7.4, 1 mM EDTA, 150 mM NaCl, 0.2 mg/mL BSA, 100 U/mL catalase and 10 mM DTT. […] of the DiFMUP substrate solution, for a final concentration of […] DiFMUP substrate, was added to a Corning 3574 384-well, white, non-binding surface microtiter plate containing […] of serially diluted test compounds prepared in DMSO. The reactions were started with the addition of […] of the enzyme solution, for a final PTPN2 concentration of 0.15 nM, and monitored every 105 seconds for 60 minutes at λEX 360/λEM 460 in a BioTek Synergy HTX plate reader (Agilent Technologies, Santa Clara, CA) at room temperature. The initial linear portions of the progress curves were fit according to a linear equation to yield the slopes and converted to % inhibition based on a value of 100% activity for the no inhibitor treated control. IC50 values of each compound were obtained by fitting the % inhibition-compound concentration curves using Dotmatics software (Dotmatics, Bishops Stortford, Hertfordshire, England),
Target sequence in this assay (P17706 other isoform, or with tags, fused parts or gaps isoform P17706-2): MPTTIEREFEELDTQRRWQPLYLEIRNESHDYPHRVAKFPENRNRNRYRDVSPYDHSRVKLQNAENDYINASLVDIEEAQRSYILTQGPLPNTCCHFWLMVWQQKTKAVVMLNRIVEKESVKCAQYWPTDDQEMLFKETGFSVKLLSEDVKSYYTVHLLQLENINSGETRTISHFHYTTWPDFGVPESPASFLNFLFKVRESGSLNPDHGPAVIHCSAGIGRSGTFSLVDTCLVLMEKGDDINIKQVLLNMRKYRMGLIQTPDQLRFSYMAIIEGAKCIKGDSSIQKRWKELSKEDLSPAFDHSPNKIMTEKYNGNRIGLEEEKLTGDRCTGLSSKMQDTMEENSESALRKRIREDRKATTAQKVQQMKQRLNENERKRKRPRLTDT

[3] = tested on: phosphorylated STAT1 in B16-F10 cells; experiment: Phospho-STAT1 (Tyr701) HTRF assay in B16-F10 cells with IFN-gamma; format: cell-based; conditions: mouse IFN-gamma 100 ng/mL, 1 hour, read-out: pSTAT1 HTRF B16F10 EC50
Protocol: B16-F10 cells (ATCC, Manassas, VA, #CRL-6475) were cultured in DMEM growth medium (ThermoFisher Scientific, Waltham, MA, #11995-040) supplemented with 10% heat-inactivated FBS (ThermoFisher Scientific, #16140-071) and 1% pen/strep (ThermoFisher Scientific, #15140-122). The cells were seeded into a white opaque 384-well tissue culture treated microplate (PerkinElmer, Waltham, MA, #6007688) at a density of 10,000 cells/well in 20 uL total volume and incubated overnight at 37 C and 5% CO2. 30 nL of compounds dissolved in DMSO were then transferred from a source plate into target wells with the Echo650 acoustic liquid handler (Beckman Coulter, Indianapolis, IN). Negative control wells received 30 nL of DMSO only (0.15% final concentration). Plates were returned to the incubator for 1 hour and then cells were treated with either 5 uL of growth medium or 5 uL of growth medium containing 500 ng/mL of recombinant mouse IFN-gamma protein (R&D Systems, Minneapolis, MN, #485-MI/CF, 100 ng/mL final concentration) using the Assist automated pipetting platform (INTEGRA Biosciences, Hudson, NH). Plates were incubated at 37 C for 1 hour and assayed for phosphorylated STAT1 protein levels with the phospho-STAT1 (Tyr701) HTRF kit (Cisbio, Bedford, MA, #63ADK026PEH) according to the manufacturer's instructions.

[4] = tested on: B16-F10 cells; experiment: Cell proliferation assay (CellTiter-Glo) in B16-F10 cells with IFN-gamma; format: cell-based; conditions: 120 h, mouse IFN-gamma 10 ng/mL, read-out: PTPN2 Prolif 5d B16F10 EC50

Row | Structure (SMILES) | IC50 [1] | IC50 [2] | EC50 [3] | EC50 [4]
1 | COc1cccc(NCc2cc(O)c(N3CC(=O)NS3(=O)=O)c(F)c2)n1 [EXAMPLE 35, 5-[2-fluoro-6-hydroxy-4-[[(6-methoxy-2-pyridyl)amino]methyl]phenyl]-1,1-dioxo-1,2,5-thiadiazolidin-3-one] | 80 nM | 20 nM | 11600 nM | 8660 nM
2 | Cc1cc(NCc2cc(O)c(N3CC(=O)NS3(=O)=O)c(F)c2)ncc1C#N [EXAMPLE 32, 6-[[3-fluoro-5-hydroxy-4-(1,1,4-trioxo-1,2,5-thiadiazolidin-2-yl)phenyl]methylamino]-4-methyl-pyridine-3-carbonitrile] | 30 nM | 50 nM | 2340 nM | 4550 nM
3 | Cc1ccnc(NCc2cc(O)c(N3CC(=O)NS3(=O)=O)c(F)c2)c1C [EXAMPLE 25, 5-[4-[[(3,4-dimethyl-2-pyridyl)amino]methyl]-2-fluoro-6-hydroxy-phenyl]-1,1-dioxo-1,2,5-thiadiazolidin-3-one] | 90 nM | 130 nM | 10200 nM | 7670 nM
4 | Cc1cc(NCc2cc(O)c(N3CC(=O)NS3(=O)=O)c(F)c2)ncc1F [EXAMPLE 31, 5-[2-fluoro-4-[[(5-fluoro-4-methyl-2-pyridyl)amino]methyl]-6-hydroxy-phenyl]-1,1-dioxo-1,2,5-thiadiazolidin-3-one] | 20 nM | 50 nM | 1190 nM | 1530 nM
5 | O=C1CN(c2c(O)cc(CNc3ccc(-c4ccccc4)cn3)cc2F)S(=O)(=O)N1 [EXAMPLE 8, 5-[2-fluoro-6-hydroxy-4-[[(5-phenyl-2-pyridyl)amino]methyl]phenyl]-1,1-dioxo-1,2,5-thiadiazolidin-3-one] | 50 nM | 950 nM | 3930 nM | 6250 nM

Continued by falling IC50 [1], values first:

Row | IC50 [1] | IC50 [2] | EC50 [3] | EC50 [4] | Structure (SMILES)
6 | 816 nM | 3240 nM | > 15000 nM | > 15000 nM | O=C1CN(c2c(O)cc(CN(c3ccc(C(F)(F)F)cn3)C3CC3)cc2F)S(=O)(=O)N1 [EXAMPLE 50, 5-(4-((cyclopropyl(5-(trifluoromethyl)pyridin-2-yl)amino)methyl)-2-fluoro-6-hydroxyphenyl)-1,2,5-thiadiazolidin-3-one 1,1-dioxide]
7 | 80 nM | 170 nM | 2970 nM | 2470 nM | COc1ccc(C)nc1NCc1cc(O)c(N2CC(=O)NS2(=O)=O)c(F)c1 [EXAMPLE 22, 5-[2-fluoro-6-hydroxy-4-[[(3-methoxy-6-methyl-2-pyridyl)amino]methyl]phenyl]-1,1-dioxo-1,2,5-thiadiazolidin-3-one]
8 | 10 nM | 10 nM | 90 nM | 140 nM | COc1ccnc(NCc2cc(O)c(N3CC(=O)NS3(=O)=O)c(F)c2)c1 [EXAMPLE 12, 5-[2-fluoro-6-hydroxy-4-[[(4-methoxy-2-pyridyl)amino]methyl]phenyl]-1,1-dioxo-1,2,5-thiadiazolidin-3-one]
9 | 10 nM | 10 nM | 340 nM | 740 nM | COc1cnc(NCc2cc(O)c(N3CC(=O)NS3(=O)=O)c(F)c2)cc1OC [EXAMPLE 26, 5-[4-[[(4,5-dimethoxy-2-pyridyl)amino]methyl]-2-fluoro-6-hydroxy-phenyl]-1,1-dioxo-1,2,5-thiadiazolidin-3-one]
10 | 4 nM | 4 nM | 70 nM | 120 nM | COc1cc(NCc2cc(O)c(N3CC(=O)NS3(=O)=O)c(F)c2)ncc1C [EXAMPLE 9, 5-[2-fluoro-6-hydroxy-4-[[(4-methoxy-5-methyl-2-pyridyl)amino]methyl]phenyl]-1,1-dioxo-1,2,5-thiadiazolidin-3-one]
11 | 3 nM | 10 nM | 140 nM | 170 nM | O=C1CN(c2c(O)cc(CNc3cc(OC4CC4)ccn3)cc2F)S(=O)(=O)N1 [EXAMPLE 6, 5-[4-[[[4-(cyclopropoxy)-2-pyridyl]amino]methyl]-2-fluoro-6-hydroxy-phenyl]-1,1-dioxo-1,2,5-thiadiazolidin-3-one]
